Results: article PMC6001238, “Iterative Chemical Engineering of Vancomycin Leads to Novel Vancomycin Analogs With a High in Vitro Therapeutic Index” (Frontiers in Microbiology, 2018)
Values after ≈ are worked out from the molar mass of the structure shown.

Key:
E. faecalis VSE 1 = test: MIC, broth microdilution, vancomycin-sensitive E. faecalis (VSE 1); format: cell-based, Enterococcus faecalis; conditions: for MIC: Enterococcus faecalis VSE 1 (vancomycin-sensitive), read-out: MIC; for MIC-fold improvement vs. vancomycin: VSE 1, ratio of MIC of vancomycin and MIC of analogue
Procedure, shortened: (§1)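 Following CLSI antimicrobial susceptibility standards, organisms were tested by broth microdilution. Controls comprised ultrapure water plus broth left uninoculated. For a single condition, 10 μM vancomycin (final) accompanied the analog or control agent.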

E. faecalis VRE 6 = test: MIC, broth microdilution, vancomycin-resistant E. faecalis VRE 6 (VanA); format: cell-based, Enterococcus faecalis; conditions: for MIC: Enterococcus faecalis VRE 6 (vancomycin-resistant), read-out: MIC; for MIC-fold improvement vs. vancomycin: VRE 6, ratio of MIC of vancomycin and MIC of analogue
Procedure, shortened: as §1

E. faecalis VRE 53 = test: MIC, broth microdilution, vancomycin-resistant E. faecalis VRE 53 (VanA); format: cell-based, Enterococcus faecalis; conditions: for MIC: Enterococcus faecalis VRE 53 (vancomycin-resistant), read-out: MIC; for MIC-fold improvement vs. vancomycin: VRE 53, ratio of MIC of vancomycin and MIC of analogue
Procedure, shortened: as §1

E. faecalis VRE 29 = test: MIC, broth microdilution, vancomycin-resistant E. faecalis VRE 29 (VanA); format: cell-based, Enterococcus faecalis; conditions: for MIC: Enterococcus faecalis VRE 29 (vancomycin-resistant), read-out: MIC; for MIC-fold improvement vs. vancomycin: VRE 29, ratio of MIC of vancomycin and MIC of analogue
Procedure, shortened: as §1

E. faecalis VRE 37 = test: MIC, broth microdilution, vancomycin-resistant E. faecalis VRE 37 (VanA); format: cell-based, Enterococcus faecalis; conditions: for MIC: Enterococcus faecalis VRE 37 (vancomycin-resistant), read-out: MIC; for MIC-fold improvement vs. vancomycin: VRE 37, ratio of MIC of vancomycin and MIC of analogue
Procedure, shortened: as §1

[1] = system: Murine leukemia (L1210) cells; test: Cytostatic activity, L1210 cell proliferation; format: cell-based; conditions: mean ± SD of three experiments; highest concentration tested 250 µM; 2 days; read-out: Toxicity (IC50) L1210
Procedure, shortened: (§2)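 Readout: Coulter cell number after drug exposure at 37°C. Durations differ by line (L1210 2 days; CEM 3 days; HeLa 4 days). Stock suspension 300,000–500,000 cells/mL, diluted by mixing with compound. Endpoint: IC50 vs negative control.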

[2] = system: human T-lymphocyte (CEM) cells; test: Cytostatic activity, CEM cell proliferation; format: cell-based; conditions: mean ± SD of three experiments; highest concentration tested 250 µM; 3 days; read-out: Toxicity (IC50) CEM
Procedure, shortened: as §2

[3] = system: human cervix carcinoma (HeLa) cells; test: Cytostatic activity, HeLa cell proliferation; format: cell-based; conditions: mean ± SD of three experiments; highest concentration tested 250 µM; 4 days; read-out: Toxicity (IC50) HeLa
Procedure, shortened: as §2

[4] = system: L1210, CEM and HeLa cell lines; test: Cytostatic activity, average or summary over L1210, CEM and HeLa; format: cell-based; conditions: average of L1210, CEM and HeLa; read-out: Toxicity (IC50) Average
Procedure, shortened: as §2

[5] = system: S. aureus VSSA (ATCC 6538); test: MIC, broth microdilution, vancomycin-sensitive S. aureus (VSSA/MSSA, ATCC 6538); format: cell-based, Staphylococcus aureus; conditions: for MIC: Staphylococcus aureus VSSA, read-out: MIC; for MIC-fold improvement vs. vancomycin: VSSA, ratio of MIC of vancomycin and MIC of analogue
Procedure, shortened: as §1

S. aureus VISA/HIP5827 = test: MIC, broth microdilution, vancomycin-intermediate S. aureus VISA HIP5827; format: cell-based, Staphylococcus aureus; conditions: for MIC: Staphylococcus aureus VISA/HIP5827, read-out: MIC; for MIC-fold improvement vs. vancomycin: VISA/HIP5827, ratio of MIC of vancomycin and MIC of analogue
Procedure, shortened: as §1

S. aureus VRSA = test: MIC, broth microdilution, vancomycin-resistant S. aureus (VRSA); format: cell-based, Staphylococcus aureus; conditions: for MIC: Staphylococcus aureus VRSA, read-out: MIC; for MIC-fold improvement vs. vancomycin: VRSA, ratio of MIC of vancomycin and MIC of analogue
Procedure, shortened: as §1

MRSA KS2 = test: MIC, broth microdilution, MRSA KS2; format: cell-based, Staphylococcus aureus; conditions: for MIC-fold improvement vs. vancomycin: MRSA KS2, ratio of MIC of vancomycin and MIC of analogue; for MIC: Staphylococcus aureus MRSA KS2, read-out: MIC
Procedure, shortened: as §1

MRSA KS6 = test: MIC, broth microdilution, MRSA KS6; format: cell-based, Staphylococcus aureus; conditions: for MIC-fold improvement vs. vancomycin: MRSA KS6, ratio of MIC of vancomycin and MIC of analogue; for MIC: Staphylococcus aureus MRSA KS6, read-out: MIC
Procedure, shortened: as §1

MRSA KS89 = test: MIC, broth microdilution, MRSA KS89; format: cell-based, Staphylococcus aureus; conditions: for MIC-fold improvement vs. vancomycin: MRSA KS8, ratio of MIC of vancomycin and MIC of analogue; for MIC: Staphylococcus aureus MRSA KS8, read-out: MIC
Procedure, shortened: as §1

MRSA KS1 = test: MIC, broth microdilution, MRSA KS1; format: cell-based, Staphylococcus aureus; conditions: for MIC-fold improvement vs. vancomycin: MRSA KS1, ratio of MIC of vancomycin and MIC of analogue; for MIC: Staphylococcus aureus MRSA KS1, read-out: MIC
Procedure, shortened: as §1

[6] = system: Clostridium difficile ATJ ribotype 014/20; test: MIC, plate drop assay, C. difficile ATJ ribotype 014/20; format: cell-based; conditions: for MIC-fold improvement vs. vancomycin: C. difficile ATJ ribotype 014/20
Protocol: (§3) Bacterial lawns of both C. difficile strains were prepared by adding 0.5 mL overnight culture to 8 mL sloppy BHI agar (0.4% agar) supplemented with 1.5 g/L CaCl2⋅2H2O and 81.2 g/L MgCl2⋅6H2O, and pouring the mixture into Petri plates. A twofold dilution series of the selected vancomycin analogs, vancomycin ([…]) and daptomycin (25 μM) was spotted (10 μL) on the bacterial lawn. Spots were air-dried and the plates were incubated overnight at 37°C in an anaerobic cabinet. Ultrapure water was included as negative control. The assay was performed in triplicate. Inhibition was observed by cleared spots.

[7] = system: Clostridium difficile AIU ribotype 027; test: MIC, plate drop assay, C. difficile AIU ribotype 027; format: cell-based; conditions: for MIC-fold improvement vs. vancomycin: C. difficile AIU ribotype 027
Protocol: as §3

## CNC(CC(C)C)C(=O)NC1C(=O)NC(CC(N)=O)C(=O)NC2C(=O)NC3C(=O)NC(C(=O)NC(C(=O)NCCCNC(=O)c4ccc5cc(OC)ccc5c4)c4cc(O)cc(O)c4-c4cc3ccc4O)C(O)c3ccc(c(Cl)c3)Oc3cc2cc(c3OC2OC(CO)C(O)C(O)C2OC2CC(C)(N)C(O)C(C)O2)Oc2ccc(cc2Cl)C1O (stereo not shown) [Vanc-29]
E. faecalis VSE 1
  MIC: 0.20 µM (≈ 0.338 µg/mL)
  MIC-fold improvement vs. vancomycin: 8
E. faecalis VRE 6
  MIC: 1.56 µM (≈ 2.64 µg/mL)
  MIC-fold improvement vs. vancomycin: 128
E. faecalis VRE 53
  MIC: 25 µM (≈ 42.2 µg/mL)
  MIC-fold improvement vs. vancomycin: 16
E. faecalis VRE 29
  MIC: 6.25 µM (≈ 10.6 µg/mL)
  MIC-fold improvement vs. vancomycin: 64
E. faecalis VRE 37
  MIC: 12.5 µM (≈ 21.1 µg/mL)
[1]
  IC50: > 250 µM
[2]
  IC50: > 250 µM
[3]
  IC50: 54 ± 44 µM
[4]
  IC50: 185 µM
[5]
  MIC: 0.39 µM (≈ 0.659 µg/mL)
  MIC-fold improvement vs. vancomycin: 2
S. aureus VISA/HIP5827
  MIC: 0.39 µM (≈ 0.659 µg/mL)
  MIC-fold improvement vs. vancomycin: 16
S. aureus VRSA
  MIC: 3.13 µM (≈ 5.29 µg/mL)
  MIC-fold improvement vs. vancomycin: 32
MRSA KS2
  MIC-fold improvement vs. vancomycin: 2
  MIC: 0.39 µM (≈ 0.659 µg/mL)
MRSA KS6
  MIC-fold improvement vs. vancomycin: 2
  MIC: 0.39 µM (≈ 0.659 µg/mL)
MRSA KS89
  MIC-fold improvement vs. vancomycin: 2
  MIC: 0.39 µM (≈ 0.659 µg/mL)
MRSA KS1
  MIC-fold improvement vs. vancomycin: 2
  MIC: 0.39 µM (≈ 0.659 µg/mL)
[6]
  MIC-fold improvement vs. vancomycin: 5.6
[7]
  MIC-fold improvement vs. vancomycin: 7

## CNC(CC(C)C)C(=O)NC1C(=O)NC(CC(N)=O)C(=O)NC2C(=O)NC3C(=O)NC(C(=O)NC(C(=O)NCCCNC(=O)c4ccc(-c5ccc(F)cc5)cc4)c4cc(O)cc(O)c4-c4cc3ccc4O)C(O)c3ccc(c(Cl)c3)Oc3cc2cc(c3OC2OC(CO)C(O)C(O)C2OC2CC(C)(N)C(O)C(C)O2)Oc2ccc(cc2Cl)C1O (stereo not shown) [Vanc-34]
E. faecalis VSE 1
  MIC: 0.20 µM (≈ 0.341 µg/mL)
  MIC-fold improvement vs. vancomycin: 8
E. faecalis VRE 6
  MIC: 0.39 µM (≈ 0.664 µg/mL)
  MIC-fold improvement vs. vancomycin: 513
E. faecalis VRE 53
  MIC: 12.5 µM (≈ 21.3 µg/mL)
  MIC-fold improvement vs. vancomycin: 32
E. faecalis VRE 29
  MIC: 3.13 µM (≈ 5.33 µg/mL)
  MIC-fold improvement vs. vancomycin: 128
E. faecalis VRE 37
  MIC: 6.25 µM (≈ 10.6 µg/mL)
  MIC-fold improvement vs. vancomycin: 64
[1]
  IC50: 42 ± 7 µM
[2]
  IC50: 34 ± 2 µM
[3]
  IC50: 110 ± 8 µM
[4]
  IC50: 62 µM
[5]
  MIC: 0.10 µM (≈ 0.17 µg/mL)
  MIC-fold improvement vs. vancomycin: 8
S. aureus VISA/HIP5827
  MIC: 0.10 µM (≈ 0.17 µg/mL)
  MIC-fold improvement vs. vancomycin: 64
S. aureus VRSA
  MIC: 0.78 µM (≈ 1.33 µg/mL)
  MIC-fold improvement vs. vancomycin: 128
MRSA KS2
  MIC-fold improvement vs. vancomycin: 8
  MIC: 0.10 µM (≈ 0.17 µg/mL)
MRSA KS6
  MIC-fold improvement vs. vancomycin: 4
  MIC: 0.20 µM (≈ 0.341 µg/mL)
MRSA KS89
  MIC-fold improvement vs. vancomycin: 4
  MIC: 0.20 µM (≈ 0.341 µg/mL)
MRSA KS1
  MIC-fold improvement vs. vancomycin: 4
  MIC: 0.20 µM (≈ 0.341 µg/mL)
[6]
  MIC-fold improvement vs. vancomycin: 22
[6]; C. difficile ATJ ribotype 014/20, plate drop assay
  MIC: 1.56 µM (≈ 2.66 µg/mL)
[7]
  MIC-fold improvement vs. vancomycin: 29
[7]; C. difficile AIU ribotype 027, plate drop assay
  MIC: 1.56 µM (≈ 2.66 µg/mL)

## CN[C@H](CC(C)C)C(=O)N[C@H]1C(=O)N[C@@H](CC(N)=O)C(=O)N[C@H]2C(=O)N[C@H]3C(=O)N[C@H](C(=O)N[C@H](C(=O)NCC(=O)Nc4ccc(Nc5ccccc5)cc4)c4cc(O)cc(O)c4-c4cc3ccc4O)[C@H](O)c3ccc(c(Cl)c3)Oc3cc2cc(c3O[C@@H]2O[C@H](CO)[C@@H](O)[C@H](O)[C@H]2O[C@H]2C[C@](C)(N)[C@H](O)[C@H](C)O2)Oc2ccc(cc2Cl)[C@H]1O [Vanc-43]
E. faecalis VSE 1
  MIC: 0.39 µM (≈ 0.652 µg/mL)
  MIC-fold improvement vs. vancomycin: 4
E. faecalis VRE 6
  MIC: 1.56 µM (≈ 2.61 µg/mL)
  MIC-fold improvement vs. vancomycin: 128
E. faecalis VRE 53
  MIC: 25 µM (≈ 41.8 µg/mL)
  MIC-fold improvement vs. vancomycin: 16
E. faecalis VRE 29
  MIC: 6.25 µM (≈ 10.5 µg/mL)
  MIC-fold improvement vs. vancomycin: 64
E. faecalis VRE 37
  MIC: 6.25 µM (≈ 10.5 µg/mL)
  MIC-fold improvement vs. vancomycin: 64
[1]
  IC50: > 250 µM
[2]
  IC50: > 250 µM
[3]
  IC50: > 250 µM
[4]
  IC50: > 250 µM
[5]
  MIC: 0.39 µM (≈ 0.652 µg/mL)
  MIC-fold improvement vs. vancomycin: 2
S. aureus VISA/HIP5827
  MIC: 1.56 µM (≈ 2.61 µg/mL)
  MIC-fold improvement vs. vancomycin: 4
S. aureus VRSA
  MIC: 1.56 µM (≈ 2.61 µg/mL)
  MIC-fold improvement vs. vancomycin: 64
MRSA KS2
  MIC-fold improvement vs. vancomycin: 2
  MIC: 0.39 µM (≈ 0.652 µg/mL)
MRSA KS6
  MIC-fold improvement vs. vancomycin: 0.25
  MIC: 3.13 µM (≈ 5.24 µg/mL)
MRSA KS89
  MIC-fold improvement vs. vancomycin: 2
  MIC: 0.39 µM (≈ 0.652 µg/mL)
MRSA KS1
  MIC-fold improvement vs. vancomycin: 2
  MIC: 0.39 µM (≈ 0.652 µg/mL)
[6]
  MIC-fold improvement vs. vancomycin: 22
[7]
  MIC-fold improvement vs. vancomycin: 29
